Where “and” joins values, the source holds several entries; their conditions need not be identical. Equal entries are not always repeated.

Data set [1] deals with lipid peroxide content (TBARS). Briefly: Measurement of lipid peroxidation (TBARS) in gastric tissue homogenate. The conditions noted are these: ulcerated mice. The format is in vivo. The method, then:
The fundic stomach homogenate was used for measurement of lipid peroxide content as thiobarbituric acid reactive species (TBARS).
The cytosolic fraction from the gastric tissue homogenate was used for measurement of lipid peroxide content as thiobarbituric acid reactive species (TBARS). Briefly, 1 mL of the cytosolic fraction was allowed to react with 2 mL of TCA-TBA-HCl (15% TCA, 0.375% TBA, 0.25 N HCl) reagent, heated in a boiling water-bath for 15 min, cooled and centrifuged. The absorbance of the supernatant was measured for nano moles of TBARS at 535 nm (ε=1.5×10^5/M/cm).

Data set [2] relates to indomethacin-induced acute gastric ulcers. Briefly: Protection studies of gastric ulceration in vivo (indomethacin-induced acute gastric ulcer, ulcer index). More on the design: species or system Balb/c mice. The settings on record: for inhibition in ulcer index: 4 h. The protocol: Animal experiments were carried out using Balb/c mice (20-25 g). Animals were anesthetized with ketamine (12 mg/kg b.w.) prior to cervical dislocation. Control and experimental animals were fasted for 6 hr with free access to water.
Balb/c mice (20-25 g) bred in-house with free access to food and water was used for all experiments. Experiments were designed to minimize animal suffering and to use the minimum number associated with valid statistical evaluation. Animals were anesthetized with ketamine (12 mg/kg b.w.) followed by cervical dislocation. Animal experiments were carried out following the guidelines of animal ethics committee of the institute. Control and experimental animals were fasted for 6 h with free access to water.
Before ulcer induction, animals of both control and experimental groups were kept separately in standard controlled conditions. Acute gastric ulcers were induced by oral administration of indomethacin at a dose of 80 mg/kg b.w. The control group received the vehicle only (olive oil), whereas the experimental group received indomethacin for gastric ulceration. After 4 h, the animals were sacrificed and gastric lesions in the fundic stomach were scored and expressed as obtained by counting the number of red bands/dots as follows: 0=no pathology; 1=a small pinhead ulcer spot; and 2-5=a band like lesion of 2-5 mm length. Total score become ˜50 when ulcer is severe. The sum of the total scores as divided by the number of animals was expressed as the mean ulcer index. Formulations were administered orally 30 min prior to indomethacin treatment to check the gastroprotective effect. Among all the chemical compositions of 3-indolyl furanoids synthesized (table 1), compounds 1, 2, 5, 8, 9 and 12 were tested for prevention studies against gastric inflammation in vivo.

In a further data set the target is T1, purified MMP-9 (Homo sapiens, UniProt P14780).
T1 construct: from tissue; host or cells: bronchoalveolar lavage fluid of IPF patients
The data set is described as follows: IC50 on purified MMP-9 using gelatin zymography. Type of data set: biochemical, human (IPF patients). The conditions noted are these: purified MMP-9, gelatin zymography, three independent experiments. The protocol: MMP-9 was purified from the bronchoalveolar lavage fluid (BALF) of idiopathic pulmonary fibrosis (IPF) patients as these fluids contain enormous amounts of MMP-9. All purification procedures were carried out at 4° C. Briefly, BALF containing protease inhibitor cocktail (EDTA Free) were centrifuged at 12,000 g for 15 min, and the supernatant was collected and processed for protein purification. […] The enzyme was eluted with 7% dimethyl sulfoxide diluted in the same buffer, and the fractions containing enzyme protein as determined by absorbance at 280 nm were pooled and immediately dialyzed against equilibrating buffer at 4° C. They were then concentrated using Amicon Ultra-15 centrifugal filter devices and protein concentration was determined by Bradford assay. These samples were screened to confirm the presence of MMP-9 and absence of MMP-2 by gelatin zymography and stored at −70° C.
The inventors address the IC50 value of compound 5 towards MMP-9 binding. To evaluate the IC50 value of compound 5 on MMP-9 activity, equal amount of purified MMP-9 was incubated with various concentrations of compound 5 followed by electrophoresis in 8% SDS-PAGE containing 1 mg/mL gelatin under nonreducing conditions.

Data set [3] is described as follows: Pharmacokinetic profiling in rat. Type of data set: in vivo, Sprague Dawley rats. The conditions noted are these: single dose 250 mg/kg oral gavage, male rats, plasma. The protocol:
Male sprague dawley rats (n=6) received a single dose of 250 mg/kg body weight compound 5 by oral gavage. Compound 5 levels in plasma were determined by HPLC. Values represent mean plasma levels.
Column chromatography was carried out using silica gel 100-200 mesh. Analytical thin-layer chromatography (TLC) was performed with silica gel 60 F254 aluminium sheets. ^1H NMR spectra were recorded on a Bruker DPX 300 MHz or Bruker DRX 600 MHz NMR instrument at ambient temperature in CDCl3, CD3OD or DMSO-d6. ^13C NMR spectra were recorded at 75 MHz or 150 MHz at ambient temperature. The chemical shifts were recorded in parts per million (ppm) with TMS as internal reference. All ^13C NMR spectra were recorded with complete proton decoupling. Mass spectral data refer to EIMS or ESIMS and are recorded in m/z unit. DI-EIMS were recorded on a GC-MS Shimadzu-QP5050A and ESIMS were done on a Waters® Micromass® Q-TOF Mass Spectrometer. Melting points are recorded on a SPAC-N SERVICE (India) melting point apparatus (Laboratory device) in open capillaries and are uncorrected. Elemental analyses were performed by Perkin-Elmer CHN/O analyzer model 2400, series II. HPLC analysis of plasma samples were performed on a Shimadzu Model SPD-M10Avp equipped with LC-10ATvp HPLC pump, Hamamatsu Deuterium Lamp type L6585 photodiode array detector. Chromatography was achieved using a Phenomenex Luna 5 μm C18 (2) 100 Å LC Column (150×4.6 mm I. D.) with Guard Cartridges C18 (4×3.0 mm). The mobile phase consisted of 15% water in acetonitrile, and solutes were eluted using a flow rate 1.0 mL/min. The column was re-equilibrated at initial conditions for 5 min before the next analysis. Analytical HPLC conditions were as follows: column, Pheomenex C18 (250 mm×4.6 mm, particle size 5 μm) with solvent combination of 0.5-1.0% TFA in water:acetonitrile in various ratios at a flow rate of 0.5-1.0 mL/min, detection at 254 nm. Purity of tested compounds was established by analytical reverse phase HPLC, confirming a purity of at least 95%. Unless otherwise stated, reagents were procured from commercial sources and were used without further purification.
In order to assess the time course of action and disposition of compound 5 in vivo, pharmacokinetic studies in Sprague Dawley rats were conducted. The curve was linear in the range investigated and the extraction efficiency was greater than 70%.

T1 sequence (P14780 94-707): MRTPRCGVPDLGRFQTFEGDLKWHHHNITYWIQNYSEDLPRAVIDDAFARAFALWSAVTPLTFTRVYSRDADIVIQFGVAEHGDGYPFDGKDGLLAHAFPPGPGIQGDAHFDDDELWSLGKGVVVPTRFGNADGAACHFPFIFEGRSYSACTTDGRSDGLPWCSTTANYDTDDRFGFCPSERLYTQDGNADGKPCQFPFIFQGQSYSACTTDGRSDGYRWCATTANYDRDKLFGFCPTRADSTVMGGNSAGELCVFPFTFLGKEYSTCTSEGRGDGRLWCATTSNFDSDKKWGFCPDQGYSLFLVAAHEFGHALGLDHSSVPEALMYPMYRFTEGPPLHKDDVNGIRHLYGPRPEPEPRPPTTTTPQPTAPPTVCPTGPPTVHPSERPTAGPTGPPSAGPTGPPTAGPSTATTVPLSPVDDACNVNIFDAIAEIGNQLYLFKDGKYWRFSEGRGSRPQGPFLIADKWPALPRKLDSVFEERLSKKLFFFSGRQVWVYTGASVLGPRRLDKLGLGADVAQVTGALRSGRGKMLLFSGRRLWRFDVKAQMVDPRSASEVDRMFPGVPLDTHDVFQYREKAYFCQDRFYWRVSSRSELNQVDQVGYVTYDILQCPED

Take `COc1cccc2[nH]cc(-c3cc(-c4ccccc4)oc3-c3ccccc3)c12` [compound 5, 4-methoxy-3-(2,5-diphenylfuran-3-yl)-1H-indole]: the Lipid peroxidation was found to be 0.47±0.15 nmol TBARS/mg tissue in data set [1] and 0.47 ± 0.15 nmol TBARS/mg tissue in data set [1] (listed as Compound 5). For the same compound, the “inhibition in ulcer index” value in data set [2] (10 mg/kg bw oral prior to indomethacin 80 mg/kg) was determined as 40%; in data set [2] (25 mg/kg bw oral prior to indomethacin 80 mg/kg), 80%. The inhibition in vivo at 50 mg/kg in data set [2] (Mus musculus, 50 mg/kg body weight oral in olive oil, indomethacin 80 mg/kg, scored after 4 h, Balb/c mice) is 95%. Also, the IC50 on purified MMP-9 was ~50 µM and 50 µM. Moreover, the Cmax in data set [3] (Sprague-Dawley, rat) was found to be 104 µg/mL. Besides, in data set [3] (Sprague-Dawley, rat), the Tmax was approximately 6 h. Besides, the half-life in data set [3] (Sprague-Dawley, rat) was 7 h. In addition, the “area under the curve” value in data set [3] was determined as 1273.8 µg·h/mL.

One may read the inhibition in vivo as the change of the read-out against control, counted positive when it falls. Lower therefore signals little suppression. A word on the IC50: it is the point on the concentration scale where inhibition reaches its midpoint. A higher IC50 goes with weaker potency. The term Cmax denotes the peak of the concentration-time curve. What is called Tmax is the time from dosing to the highest level. In general, half-life refers to the time needed for the level to fall by half in the phase considered.

(Values after US10590116B2, “3-indolyl furanoids as inhibitors of matrix metalloproteinase-9 for prevention of gastric ulcer and other inflammatory diseases” (Council of Scientific & Industrial Research, priority 2017, dated 2020).)
